Molecules are shown by their SMILES.

A short description of this data set: Human HepG2 cell viability assay in 384 well format. The class given is toxicity, cell-based. On the set-up: dose 125 nL, time 70.5 hour; cytotoxicity at 70.5 h: concentration not given beside the values. Conditions: HepG2 cells, read-out: Inhibition.
Take `Cc1nonc1C1CCCN1C(=O)c1cc2n(n1)CCCNC2` (configuration not stated): the cytotoxicity at 70.5 h is 4.03%. The same measure for `CN1CCN(CCCOc2ccccc2CN2C[C@H]3CC[C@H]2C3)CC1`: 17.4%; for `CCc1cnc(C)nc1N1CCC(Cc2cccc(C(=O)O)c2)C1` (configuration not stated): -7.7%. For the compound `O=S(=O)(c1ccc(-c2nc3c([nH]2)CCNC3)cc1)N1CCCC1`, the cytotoxicity at 70.5 h is -11.8%.

For the compound `CCn1c(C)cc(C(=O)N2C[C@@H](C(=O)O)[C@H](c3ccccc3C)C2)c1C`, the cytotoxicity at 70.5 h was -8.47%.

In the case of `Cc1[nH]nc(CCC(=O)N2CCOC(CCc3ccccc3)C2)c1C` (configuration not stated), the cytotoxicity at 70.5 h was -0.521%. Turning to `Cc1nc(C(=O)N2CCN(C(=O)N(C)C)[C@@H]3CS(=O)(=O)C[C@@H]32)cs1`, the cytotoxicity at 70.5 h was -5.31%.

On to `c1ccc(Cc2nc(C3CC3)nn2-c2ccc3c(c2)OCCO3)nc1`, for which the cytotoxicity at 70.5 h was 43.6%.

Regarding `Cc1nnsc1C(=O)NCc1cccnc1N(C)Cc1ccccc1`, the cytotoxicity at 70.5 h is -7.67%. The same measure for `COC(=O)[C@@H]1C[C@H](NC(=O)Cn2c(=O)cc(C)c3ccccc32)CN1C`: 26.6%. Regarding `CC(C)n1cc(C(=O)N2CCN(c3cccc(C(F)(F)F)c3)CC2)cn1`, the cytotoxicity at 70.5 h was -5.28%.

As to `CC(C)C[C@@H](CO)n1cc(-c2cncnc2)nn1`, the cytotoxicity at 70.5 h turned out to be 1.71%. Turning to `Cc1csc2c(=O)n(C(C)Cc3cccnc3)cnc12` (configuration not stated), the cytotoxicity at 70.5 h is -9.53%. Turning to `CN(C)C(=O)N1C[C@@H]2CC[C@H](C1)N(Cc1nnc(-c3ccco3)o1)C2`, the cytotoxicity at 70.5 h is 10.9%. As to `CC(C)NCc1cccnc1N1CCN(c2ccccn2)CC1`, the cytotoxicity at 70.5 h is -11.6%. Turning to `CN(Cc1ccn[nH]1)Cc1c[nH]nc1-c1ccc(F)cc1`, the cytotoxicity at 70.5 h was -3.15%. The same measure for `c1cc(-c2ccc(CN3CCC4(CCNCC4)CC3)s2)[nH]n1`: -2.82%. `COc1ccc(CCN(C)C(C(=O)O)c2ccc(F)c(C)c2)cc1OC` (configuration not stated): the cytotoxicity at 70.5 h worked out at 9.05%. Regarding `CCC(CO)N(Cc1ccsc1)Cc1ccccc1C(=O)O` (configuration not stated), the cytotoxicity at 70.5 h is -8.61%. With `CCN(C)[C@H]1CN(C(=O)c2cccc(N3CCS(=O)(=O)CC3)c2)C[C@@H]1O`, the cytotoxicity at 70.5 h is -7.37%.

With `Cn1nccc1NC(=O)Cn1ccc(-c2ccc3c(c2)OCO3)n1`, the cytotoxicity at 70.5 h is -22.6%. Turning to `CCN(CCO)C[C@@H]1CN(C(=O)c2sc3ccccc3c2C)C[C@@H]1CO`, the cytotoxicity at 70.5 h was 8.11%. Consider `COc1cccc2c1OCC(C(=O)NCCc1nc3c(s1)CCC3)C2` (configuration not stated), for which the cytotoxicity at 70.5 h was -5.62%. The same measure for `O=C(c1cccc(-n2cccn2)c1)N1CCCOC(Cn2cccn2)C1` (configuration not stated): 12.9%; for `CSc1ccccc1C(=O)N1C[C@@H](N(C)C)[C@H](c2ccc(C)cc2)C1`: -1.92%; for `CN1CCC(Cc2noc(CC3CC3)n2)CC1`: -7.67%. On to `O=C(c1ncccc1O)N1CCc2c(nc(-c3ccncc3)[nH]c2=O)C1`, for which the cytotoxicity at 70.5 h came to 9.03%. For the compound `O=C(NCCn1cc(Cl)cn1)C1CCN(C(=O)C2CC2)CC1`, the cytotoxicity at 70.5 h was 2.7%. The same measure for `Cn1ccc2ccc(C(=O)N3CCC[C@H]3C(=O)N3CCOCC3)cc21`: -11.1%; for `COc1ccccc1N1CCN(Cc2ncc(C)c(OC)c2C)CC1=O`: -6.77%.

In the case of `COc1ccc2c(c1)CC(C(=O)N(C)Cc1noc3c1CCCC3)CO2` (configuration not stated), the cytotoxicity at 70.5 h was -4.86%. On to `Cc1cnc(C(=O)N2CCCC(c3nccn3Cc3cscn3)C2)cn1` (configuration not stated), for which the cytotoxicity at 70.5 h is -3.23%. Take `CN(Cc1n[nH]c2c1CCC2)C(=O)c1cc(-c2cccn2C)n[nH]1`: the cytotoxicity at 70.5 h turned out to be 25.6%.

As to `CN(CC1(CO)CCCC1)c1nc2c(c(=O)[nH]1)Cc1ccccc1OC2`, the cytotoxicity at 70.5 h was -10%. To `Cc1noc(C)c1CN1CC2(CCN(Cc3c[nH]cn3)CC2)CC1=O` belongs -2.12%; to `CC(C)[C@@H]1CN(CC(=O)NCc2ccco2)C[C@H]1NS(=O)(=O)N(C)C`, -3.9%; to `O=S(=O)(c1ccc2c(c1)OCCO2)N1CCc2ccccc2C1`, -7.73%.

(Values after ChEMBL document CHEMBL3507680, “University of Dundee, Gates Library screen for HepG2 cell viability”.)
